Source: patent US20210283087A1, “METHOD FOR TREATING AND RELIEVING MYOPIA” (China Medical University, priority 2014, published 2021)

Legend:
[1] = tested on: Sclera fibroblast; experiment: Gene expression by real-time PCR in LPS-treated primary scleral fibroblasts; assay type: cell-based, hamster
Protocol: (§1) R28 rat retinal epithelial cells were provided by Gail Seigel at the Ross Eye Institute (SUNY, Buffalo, N.Y., USA). The cells were cultured in Dulbecco's modified Eagle's medium (DMEM) with 10% fetal bovine serum (FBS) at 37° C. and 5% CO2, with medium replacement every 3 days to 4 days. Sclera were placed in a 60-mm culture dish in DMEM supplemented with 10% FBS to isolate primary scleral fibroblasts; those from fewer than three passages were used in experiments. […] Cell lysates were collected for quantitative (q)PCR to determine gene expression levels.
(§2) Total RNA was extracted using the RNeasy MiniKit (Qiagen, Valencia, Calif., USA), and 5 μg of RNA was reverse-transcribed to cDNA by using the Superscript First Strand Synthesis system (Invitrogen, Carlsbad, Calif., USA). Primers and probes used for qPCR were selected from the Universal Probes Library (Roche, West Sussex, UK). Transcript levels were normalized to those of glyceraldehyde 3-phosphate dehydrogenase in each sample.

[2] = tested on: Retinal cell (R28); experiment: Gene expression by real-time PCR in LPS-treated R28 retinal cells; assay type: cell-based, rat
Protocol: as §1, §2

[3] = tested on: ARPE-19 human retinal pigment epithelial cells; experiment: Western blot of LPS-induced signaling in ARPE-19 cells (atropine); assay type: cell-based; conditions: LPS + 100 μM atropine
Protocol: ARPE-19 human retinal pigment epithelial cells were obtained from the Bioresource Collection and Research Center, HsinChu, Taiwan (BCRC; BCRC-60383). Cells were cultured in DMEM with 10% FBS at 37° C. and 5% CO2, with medium replacement every 3 to 4 days. […] After treatment, 30 μg of total cell lysates was subjected to sodium dodecyl sulfate polyacrylamide gel electrophoresis (SDS-PAGE), followed by immunoblot analysis. Primary antibodies used included ERK (Thr202/Tyr204), AKT (Ser473), PI3K (p85[Tyr458]/p55[Tyr199]), NF-κB (p65, Ser536), and c-Fos (Ser32; Cell Signaling, Beverly, Mass., USA). Antirabbit or antimouse secondary antibody conjugated with horseradish peroxidase was also used. Immunoreactive protein bands were detected using an enhanced chemiluminescence kit (ECL, Pierce, Thermo Fisher Scientific, Pittsburgh, Pa., USA). Equal loading was confirmed through probing the blots with β-actin antibody (Abcam, Cambridge, Mass., USA) as well as anti-ERK, AKT, PI3K, NF-κB, and c-Fos.

[4] = tested on: primary sclera fibroblast; experiment: Immunofluorescence of MMP2 and COL1 in primary scleral fibroblasts; assay type: cell-based, rat; conditions: 100 μM atropine for 24 hours
Protocol: Primary sclera fibroblast cells plating on cover slides were washed with Tris-buffered saline (TBS), and subsequently fixed with 4% paraformaldehyde and washed twice with TBS before blocking with 1% BSA and 0.1% Triton X-100 for 1 hour. The cells were incubated with anti-MMP2 or anti-COL1 for 1 hour before being washed three times with TBS and subsequently incubated with an appropriate secondary antibody and a 4′,6-diamidino-2-phenylindole (DAPI) DNA stain. After being washed three times with TBS, the cells were imaged using fluorescence microscopy. All experiments were performed at least in triplicate.

[5] = tested on: monocular form deprivation (MFD) Syrian hamster; experiment: Refractive power in monocular form deprivation (MFD) hamster model, streak retinoscope; assay type: in vivo, golden Syrian hamsters; conditions: for Refractive power, BL: left eye before MFD / Refractive power, BR: right eye before MFD: baseline; for Refractive power, FL: left eye after MFD / Refractive power, FR: right eye after MFD (occluded eye): 21 days; for Refractive error FR-BR: MFD right eye; for Refractive error FL-BL: non-MFD left eye
Protocol: In this study, a total of 160 golden Syrian hamsters aged 3 weeks, weighing 80 to 90 g, and 20 albino guinea pigs, aged 2 to 3 weeks, were used for experiments. All animals were kept in a 12-hour light/dark cycle. All procedures were approved by the Institutional Animal Care and Use Committee of China Medical University and were conducted in accordance with the guidelines of the Use of Animals in Ophthalmic and Vision Research. Hamsters were raised with a right eyelid fusion for 21 days. Myopia was induced in the guinea pigs by covering the right eye with a cloth attached to the skin at a distance of at least 1 cm from the eye. MFD was induced in the right eye (with the left eye serving as a control) of animals randomly assigned to treatment or control groups (n=10 animals each) receiving daily applications of drug or phosphate-buffered saline (PBS), respectively, to both eyes.
The RE (i.e., spherical-component RE, which is defined as the mean RE in horizontal and vertical meridians) was measured using a hand-held streak retinoscope. Animals were anesthetized with 10% ether in O2. Ocular refraction was evaluated at the start and end of the experiment. At the end of the study, animals were sacrificed through CO2 asphyxiation according to the guidelines of the Public Health Service, Office of Laboratory Animal Welfare, National Institutes of Health, and American Association of Veterinary Medicine. Eyes were enucleated using a razor blade on an ice plate under a surgical microscope (Topcon, Tokyo, Japan) by cutting perpendicularly to the anterior-posterior axis approximately 1 mm posterior to the ora serrata. The iris and ciliary body of the anterior segment of the eye were separated. Posterior sclera was excised using a 7-mm-diameter trephine. The axial lengths were determined through A-scan ultrasonography (PacScan 300 Plus, NY, USA). The average of 10 unique measurements was used.

[6] = sclera fibroblast, 100 ng/ml LPS and 100 μM atropine for 4 hours
[7] = R28, 100 ng/ml LPS and 100 μM atropine for 4 hours
[8] = Atropine 0.125%, listed as atropine
[9] = Atropine 0.5%, listed as atropine
[10] = Atropine 1%, listed as atropine

CN1[C@@H]2CC[C@H]1C[C@@H](OC(=O)C(CO)c1ccccc1)C2 (stereo partly drawn) [Atropine, atropine]
Chrm5 gene expression level [1]: 0.98 ± 0.12 | Chrm 1 gene expression level [1, 6]: 0.73 ± 0.11 | Chrm 2 gene expression level [1, 6]: 1.24 ± 0.14 | Chrm 3 gene expression level [1, 6]: 0.70 ± 0.23 | Chrm 4 gene expression level [1, 6]: 1.11 ± 0.17 | Fos gene expression level [1, 6]: 0.93 ± 0.17 | IL1b gene expression level [1, 6]: 0.75 ± 0.13 | IL10 gene expression level [1, 6]: 1.05 ± 0.21 | IL-6 gene expression level [1, 6]: 0.79 ± 0.18 | MMP2 gene expression level [1, 6]: 0.74 ± 0.19 | NFkB gene expression level [1, 6]: 0.36 ± 0.3 | Tgfb1 gene expression level [1, 6]: 0.48 ± 0.24 | Tnfa gene expression level [1, 6]: 0.80 ± 0.2 | Chrm5 gene expression level [2]: 0.78 ± 0.24 | Chrm 1 gene expression level [2, 7]: 0.65 ± 0.16 | Chrm 2 gene expression level [2, 7]: 1.96 ± 0.2 | Chrm 3 gene expression level [2, 7]: 0.78 ± 0.11 | Chrm 4 gene expression level [2, 7]: 0.81 ± 0.23 | Fos gene expression level [2, 7]: 0.76 ± 0.17 | IL1b gene expression level [2, 7]: 0.17 ± 0.24 | IL10 gene expression level [2, 7]: 1.81 ± 0.15 | IL-6 gene expression level [2, 7]: 0.86 ± 0.19 | MMP2 gene expression level [2, 7]: 0.75 ± 0.16 | NFkB gene expression level [2, 7]: 0.85 ± 0.08 | Tgfb1 gene expression level [2, 7]: 0.82 ± 0.11 | Tnfa gene expression level [2, 7]: 0.84 ± 0.24 | Activation of ERK through LPS and downstream c-FOS [3]: inhibited | LPS activation of PI3K, AKT, and NF-κB [3]: inhibited | COL1 expression [4]: increased | Expression levels of MMP2 [4]: inhibited | Refractive power, BL: left eye before MFD ([5]; Atropine 0.125% group): 11.85 ± 0.18 D | Refractive power, BR: right eye before MFD ([5]; Atropine 0.125% group): 11.9 ± 0.07 D | Refractive power, FL: left eye after MFD ([5]; Atropine 0.125%): 8.32 ± 0.16 D | Refractive power, FR: right eye after MFD (occluded eye) ([5]; Atropine 0.125%): 6.45 ± 0.1 D | Refractive power, FL: left eye after MFD [5, 8]: 8.32±0.16 D | Refractive power, FR: right eye after MFD (occluded eye) [5, 8]: 6.45±0.1 D | Refractive error FR-BR ([5]; Atropine 0.125%): −5.45 ± 0.07 D | Refractive error FL-BL ([5]; Atropine 0.125%): −3.53 ± 0.28 D | Refractive power, BL: left eye before MFD ([5]; Atropine 0.5% group): 11.69 ± 0.13 D | Refractive power, BR: right eye before MFD ([5]; Atropine 0.5% group): 11.61 ± 0.1 D | Refractive power, FL: left eye after MFD ([5]; Atropine 0.5%): 8.58 ± 0.12 D | Refractive power, FR: right eye after MFD (occluded eye) ([5]; Atropine 0.5%): 6.72 ± 0.11 D | Refractive power, FL: left eye after MFD [5, 9]: 8.58±0.12 D | Refractive power, FR: right eye after MFD (occluded eye) [5, 9]: 6.72±0.11 D | Refractive error FR-BR ([5]; Atropine 0.5%): −4.89 ± 0.18 D | Refractive error FL-BL ([5]; Atropine 0.5%): −3.11 ± 0.19 D | Refractive power, BL: left eye before MFD ([5]; Atropine 1% group): 11.85 ± 0.18 D | Refractive power, BR: right eye before MFD ([5]; Atropine 1% group): 11.79 ± 0.15 D | Refractive power, FL: left eye after MFD ([5]; Atropine 1%): 10.79 ± 0.16 D | Refractive power, FR: right eye after MFD (occluded eye) ([5]; Atropine 1%): 7.06 ± 0.29 D | Refractive power, FL: left eye after MFD [5, 10]: 10.79±0.16 D | Refractive power, FR: right eye after MFD (occluded eye) [5, 10]: 7.06±0.29 D | Refractive error FR-BR ([5]; Atropine 1%): −4.74 ± 0.39 D | Refractive error FL-BL ([5]; Atropine 1%): −1.06 ± 0.22 D
